Legend:
Assay in all cases: radiometric filter-binding kinase assay, Kinase HotSpot
Details in all cases: compound 0.5 µM; ATP 10 µM
DDR2 (human) = DDR2 (human) (UniProt Q16832)
CAMK1 (human) = CAMK1 (human) (UniProt Q14012)
FLT3 (human) = FLT3 (human) (UniProt P36888)
PHKG1 (human) = PHKG1 (human) (UniProt Q16816)
DAPK1 (human) = DAPK1 (human) (UniProt P53355)
MAPKAPK2 (human) = MAPKAPK2 (human) (UniProt P49137)
STK33 (human) = STK33 (human) (UniProt Q9BYT3)
IKBKB (human) = IKBKB (human) (UniProt O14920)
GSK3B (human) = GSK3B (human) (UniProt P49841)
PTK6 (human) = PTK6 (human) (UniProt Q13882)
FLT1 (human) = FLT1 (human) (UniProt P17948)
IKBKE (human) = IKBKE (human) (UniProt Q14164)
MYLK2 (human) = MYLK2 (human) (UniProt Q9H1R3)
PRKACG (human) = PRKACG (human) (UniProt P22612)
PLK3 (human) = PLK3 (human) (UniProt Q9H4B4)
BMX (human) = BMX (human) (UniProt P51813)
ULK3 (human) = ULK3 (human) (UniProt Q6PHR2)
FYN (human) = FYN (human) (UniProt P06241)
ZAP70 (human) = ZAP70 (human) (UniProt P43403)
CDK1 CCNB1 (human) = CDK1 CCNB1 (human) (UniProt P06493+P14635)
PAK4 (human) = PAK4 (human) (UniProt O96013)
MAP3K3 (human) = MAP3K3 (human) (UniProt Q99759)
EPHA5 (human) = EPHA5 (human) (UniProt P54756)
STK16 (human) = STK16 (human) (UniProt O75716)
DYRK2 (human) = DYRK2 (human) (UniProt Q92630)
MST4 (human) = MST4 (human) (UniProt Q9P289)
ROCK1 (human) = ROCK1 (human) (UniProt Q13464)
LRRK2 (human) = LRRK2 (human) (UniProt Q5S007)
MAP3K10 (human) = MAP3K10 (human) (UniProt Q02779)
FES (human) = FES (human) (UniProt P07332)
GSK3A (human) = GSK3A (human) (UniProt P49840)
ACVR1 (human) = ACVR1 (human) (UniProt Q04771)
YES1 (human) = YES1 (human) (UniProt P07947)
EPHA7 (human) = EPHA7 (human) (UniProt Q15375)
HIPK4 (human) = HIPK4 (human) (UniProt Q8NE63)
CSNK2A2 (human) = CSNK2A2 (human) (UniProt P19784)
ACVR1B (human) = ACVR1B (human) (UniProt P36896)
AURKC (human) = AURKC (human) (UniProt Q9UQB9)
ADRBK1 (human) = ADRBK1 (human) (UniProt P25098)
PRKCB1 (human) = PRKCB1 (human) (UniProt P05771)

Sequence of HIPK4 (human) (Q8NE63 whole entry, looked up): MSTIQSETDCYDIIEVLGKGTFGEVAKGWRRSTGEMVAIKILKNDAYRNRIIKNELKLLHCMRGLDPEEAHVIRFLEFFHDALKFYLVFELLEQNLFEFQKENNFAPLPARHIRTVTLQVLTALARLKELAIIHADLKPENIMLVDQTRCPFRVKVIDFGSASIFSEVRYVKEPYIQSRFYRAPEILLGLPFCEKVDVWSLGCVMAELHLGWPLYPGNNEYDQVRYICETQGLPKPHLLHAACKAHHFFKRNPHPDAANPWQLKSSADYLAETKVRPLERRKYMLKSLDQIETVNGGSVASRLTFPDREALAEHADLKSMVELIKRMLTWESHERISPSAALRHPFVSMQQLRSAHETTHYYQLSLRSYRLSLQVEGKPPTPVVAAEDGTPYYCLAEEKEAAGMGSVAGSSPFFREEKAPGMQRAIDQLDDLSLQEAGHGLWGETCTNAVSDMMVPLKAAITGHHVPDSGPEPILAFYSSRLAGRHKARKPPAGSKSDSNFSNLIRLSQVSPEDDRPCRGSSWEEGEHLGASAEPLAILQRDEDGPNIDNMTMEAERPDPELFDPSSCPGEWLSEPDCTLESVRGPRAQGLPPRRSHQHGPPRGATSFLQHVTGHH
Sequence of DDR2 (human) (Q16832 whole entry, looked up): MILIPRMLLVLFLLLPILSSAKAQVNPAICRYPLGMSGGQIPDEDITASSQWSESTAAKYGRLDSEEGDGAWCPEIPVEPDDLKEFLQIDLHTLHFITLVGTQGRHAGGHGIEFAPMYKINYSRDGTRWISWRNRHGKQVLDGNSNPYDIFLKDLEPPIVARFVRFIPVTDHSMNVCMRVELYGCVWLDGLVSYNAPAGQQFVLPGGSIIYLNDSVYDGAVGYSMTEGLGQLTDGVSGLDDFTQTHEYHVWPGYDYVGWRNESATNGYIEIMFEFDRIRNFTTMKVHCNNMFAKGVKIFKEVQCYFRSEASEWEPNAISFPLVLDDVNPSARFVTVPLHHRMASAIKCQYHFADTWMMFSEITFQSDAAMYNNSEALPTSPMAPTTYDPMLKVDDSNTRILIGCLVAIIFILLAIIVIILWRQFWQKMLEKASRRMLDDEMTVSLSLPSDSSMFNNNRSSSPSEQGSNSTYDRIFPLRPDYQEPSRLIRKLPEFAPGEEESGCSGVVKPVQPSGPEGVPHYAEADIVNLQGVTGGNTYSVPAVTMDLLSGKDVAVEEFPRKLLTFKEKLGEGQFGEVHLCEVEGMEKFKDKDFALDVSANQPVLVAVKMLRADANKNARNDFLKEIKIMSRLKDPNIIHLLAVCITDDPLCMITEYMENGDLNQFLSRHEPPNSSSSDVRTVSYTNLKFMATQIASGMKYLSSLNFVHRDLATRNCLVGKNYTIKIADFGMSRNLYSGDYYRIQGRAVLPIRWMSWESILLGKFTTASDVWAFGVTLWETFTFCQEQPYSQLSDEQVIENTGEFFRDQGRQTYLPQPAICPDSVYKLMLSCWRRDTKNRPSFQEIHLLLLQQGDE
Sequence of ACVR1 (human) (Q04771 whole entry, looked up): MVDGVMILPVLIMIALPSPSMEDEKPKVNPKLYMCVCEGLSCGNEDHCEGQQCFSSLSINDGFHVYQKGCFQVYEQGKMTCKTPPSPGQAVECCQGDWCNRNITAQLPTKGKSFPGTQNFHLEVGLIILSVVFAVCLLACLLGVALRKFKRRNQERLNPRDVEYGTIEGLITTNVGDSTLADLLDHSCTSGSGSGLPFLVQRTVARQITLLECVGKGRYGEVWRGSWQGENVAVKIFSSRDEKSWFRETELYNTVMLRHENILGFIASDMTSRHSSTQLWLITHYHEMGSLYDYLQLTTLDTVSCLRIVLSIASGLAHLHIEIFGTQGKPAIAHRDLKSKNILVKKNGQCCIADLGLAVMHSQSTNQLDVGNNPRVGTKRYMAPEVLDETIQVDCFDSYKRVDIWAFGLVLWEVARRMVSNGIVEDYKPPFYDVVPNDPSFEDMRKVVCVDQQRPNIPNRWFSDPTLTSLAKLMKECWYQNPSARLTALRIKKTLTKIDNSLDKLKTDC
Sequence of FLT3 (human) (P36888 whole entry, looked up): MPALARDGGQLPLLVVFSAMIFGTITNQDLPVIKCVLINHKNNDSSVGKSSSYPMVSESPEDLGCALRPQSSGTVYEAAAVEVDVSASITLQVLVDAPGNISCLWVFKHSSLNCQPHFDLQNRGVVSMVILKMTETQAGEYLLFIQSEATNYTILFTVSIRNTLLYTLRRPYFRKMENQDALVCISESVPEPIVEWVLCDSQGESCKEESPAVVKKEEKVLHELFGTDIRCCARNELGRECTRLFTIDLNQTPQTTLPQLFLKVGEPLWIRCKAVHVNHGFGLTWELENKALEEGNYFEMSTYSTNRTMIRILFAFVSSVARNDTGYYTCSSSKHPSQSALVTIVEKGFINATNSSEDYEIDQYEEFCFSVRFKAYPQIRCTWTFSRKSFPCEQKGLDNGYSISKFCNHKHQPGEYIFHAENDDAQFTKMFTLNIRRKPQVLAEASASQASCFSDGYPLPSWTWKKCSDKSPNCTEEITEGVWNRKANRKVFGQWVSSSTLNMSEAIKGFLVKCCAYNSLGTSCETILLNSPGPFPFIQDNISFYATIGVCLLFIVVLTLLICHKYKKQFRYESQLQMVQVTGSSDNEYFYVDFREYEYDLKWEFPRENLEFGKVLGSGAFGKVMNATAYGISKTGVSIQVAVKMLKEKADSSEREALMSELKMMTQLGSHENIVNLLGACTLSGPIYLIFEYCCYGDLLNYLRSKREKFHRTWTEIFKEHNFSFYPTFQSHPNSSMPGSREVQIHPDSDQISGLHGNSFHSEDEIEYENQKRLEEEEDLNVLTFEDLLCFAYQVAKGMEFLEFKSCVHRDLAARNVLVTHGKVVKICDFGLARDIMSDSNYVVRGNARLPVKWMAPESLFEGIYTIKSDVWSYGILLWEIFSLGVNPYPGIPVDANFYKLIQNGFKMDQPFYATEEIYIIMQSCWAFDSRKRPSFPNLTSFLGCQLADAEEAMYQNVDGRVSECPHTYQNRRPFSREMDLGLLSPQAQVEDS
Sequence of ACVR1B (human) (P36896 whole entry, looked up): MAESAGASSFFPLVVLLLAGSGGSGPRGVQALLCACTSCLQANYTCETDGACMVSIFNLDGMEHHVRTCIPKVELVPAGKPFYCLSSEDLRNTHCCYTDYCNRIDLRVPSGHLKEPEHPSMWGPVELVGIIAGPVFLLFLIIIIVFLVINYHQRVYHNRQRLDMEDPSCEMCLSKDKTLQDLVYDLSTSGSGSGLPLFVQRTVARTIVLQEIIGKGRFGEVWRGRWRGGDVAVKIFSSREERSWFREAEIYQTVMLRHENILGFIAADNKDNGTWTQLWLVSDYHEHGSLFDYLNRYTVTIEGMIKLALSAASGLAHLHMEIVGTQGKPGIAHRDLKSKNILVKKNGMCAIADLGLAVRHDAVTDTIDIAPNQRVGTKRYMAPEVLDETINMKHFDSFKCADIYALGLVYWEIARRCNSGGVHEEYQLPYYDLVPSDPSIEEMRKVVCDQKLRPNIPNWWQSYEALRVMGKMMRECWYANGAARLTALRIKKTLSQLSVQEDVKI
Sequence of STK33 (human) (Q9BYT3 whole entry, looked up): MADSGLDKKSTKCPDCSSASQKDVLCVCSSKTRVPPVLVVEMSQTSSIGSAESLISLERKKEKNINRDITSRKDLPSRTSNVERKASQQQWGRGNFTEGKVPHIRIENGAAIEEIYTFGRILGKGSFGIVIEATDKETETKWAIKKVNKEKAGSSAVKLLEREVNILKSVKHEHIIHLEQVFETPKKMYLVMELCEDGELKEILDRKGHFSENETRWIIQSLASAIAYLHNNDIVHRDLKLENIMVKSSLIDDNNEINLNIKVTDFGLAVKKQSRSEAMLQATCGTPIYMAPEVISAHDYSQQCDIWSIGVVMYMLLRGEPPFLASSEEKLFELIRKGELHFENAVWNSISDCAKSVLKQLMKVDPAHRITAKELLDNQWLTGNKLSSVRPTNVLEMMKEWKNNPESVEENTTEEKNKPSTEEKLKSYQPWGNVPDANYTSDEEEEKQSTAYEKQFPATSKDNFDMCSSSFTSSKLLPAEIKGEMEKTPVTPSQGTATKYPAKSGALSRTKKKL
Sequence of YES1 (human) (P07947 whole entry, looked up): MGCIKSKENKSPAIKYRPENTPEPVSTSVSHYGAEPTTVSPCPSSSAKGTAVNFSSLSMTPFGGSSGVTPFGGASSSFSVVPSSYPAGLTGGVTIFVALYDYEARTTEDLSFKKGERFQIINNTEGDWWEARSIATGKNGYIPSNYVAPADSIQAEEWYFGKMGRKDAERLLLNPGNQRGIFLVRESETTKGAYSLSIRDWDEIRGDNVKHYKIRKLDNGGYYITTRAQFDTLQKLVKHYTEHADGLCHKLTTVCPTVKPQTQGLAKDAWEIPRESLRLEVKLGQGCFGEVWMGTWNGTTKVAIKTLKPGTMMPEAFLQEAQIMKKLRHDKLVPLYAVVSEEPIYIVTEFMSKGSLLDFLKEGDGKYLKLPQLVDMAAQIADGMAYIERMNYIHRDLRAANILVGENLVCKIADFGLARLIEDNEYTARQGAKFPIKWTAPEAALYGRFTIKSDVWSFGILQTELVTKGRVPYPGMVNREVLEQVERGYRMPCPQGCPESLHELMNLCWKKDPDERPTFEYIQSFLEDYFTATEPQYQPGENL
Sequence of AURKC (human) (Q9UQB9 whole entry, looked up): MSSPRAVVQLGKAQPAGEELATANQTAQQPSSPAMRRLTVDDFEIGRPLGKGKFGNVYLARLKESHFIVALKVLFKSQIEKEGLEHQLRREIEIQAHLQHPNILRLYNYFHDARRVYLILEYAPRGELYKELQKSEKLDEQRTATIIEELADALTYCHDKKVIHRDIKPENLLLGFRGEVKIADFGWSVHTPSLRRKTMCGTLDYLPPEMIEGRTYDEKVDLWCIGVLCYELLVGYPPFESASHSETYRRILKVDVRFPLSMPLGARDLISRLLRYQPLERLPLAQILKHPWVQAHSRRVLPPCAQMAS

Structure (SMILES)	residual activity (DDR2 (human))	residual activity (CAMK1 (human))	residual activity (FLT3 (human))	residual activity (PHKG1 (human))	residual activity (DAPK1 (human))	residual activity (MAPKAPK2 (human))	residual activity (STK33 (human))	residual activity (IKBKB (human))	residual activity (GSK3B (human))	residual activity (PTK6 (human))	residual activity (FLT1 (human))	residual activity (IKBKE (human))	residual activity (MYLK2 (human))	residual activity (PRKACG (human))	residual activity (PLK3 (human))	residual activity (BMX (human))	residual activity (ULK3 (human))	residual activity (FYN (human))	residual activity (ZAP70 (human))	residual activity (CDK1 CCNB1 (human))	other results
O=C1Nc2ccc(Cl)cc2/C1=C/c1cc(Cl)c(O)c(Cl)c1	85.8%	94.9%	26.5%	86.4%	90%	100%	85.1%	93.6%	80.8%	73.8%	85%	94.7%	71.5%	99.2%	98.2%	94.8%	92.2%	73%	95%	96.3%	residual activity (PAK4 (human)): 88.7%; residual activity (MAP3K3 (human)): 101%; residual activity (EPHA5 (human)): 99.4%; residual activity (STK16 (human)): 90.2%; residual activity (DYRK2 (human)): 94%; residual activity (MST4 (human)): 101%; residual activity (ROCK1 (human)): 93.2%; residual activity (LRRK2 (human)): 11%; residual activity (MAP3K10 (human)): 86.8%; residual activity (FES (human)): 93.7%; residual activity (GSK3A (human)): 76.1%; residual activity (ACVR1 (human)): 130%; residual activity (YES1 (human)): 78.3%; residual activity (EPHA7 (human)): 97.5%; residual activity (HIPK4 (human)): 88.4%; residual activity (CSNK2A2 (human)): 33.3%; residual activity (ACVR1B (human)): 127%; residual activity (AURKC (human)): 78.6%; residual activity (ADRBK1 (human)): 93.4%; residual activity (PRKCB1 (human)): 97.3%
CO[C@H]1CC2CC[C@@H](C)[C@@](O)(O2)C(=O)C(=O)N2CCCC[C@H]2C(=O)OC([C@H](C)C[C@@H]2CC[C@@H](O)[C@H](OC)C2)CC(=O)[C@H](C)/C=C(\C)[C@@H](O)[C@@H](OC)C(=O)[C@H](C)C[C@H](C)/C=C/C=C/C=C/1C (stereo not given in full)	95.6%	111%	95.6%	93%	88.5%	101%	105%	109%	109%	88%	97.7%	99.4%	103%	113%	96.2%	96.6%	85.6%	109%	99.2%	103%	residual activity (PAK4 (human)): 97.1%; residual activity (MAP3K3 (human)): 101%; residual activity (EPHA5 (human)): 94.7%; residual activity (STK16 (human)): 112%; residual activity (DYRK2 (human)): 100%; residual activity (MST4 (human)): 113%; residual activity (ROCK1 (human)): 103%; residual activity (LRRK2 (human)): 98.7%; residual activity (MAP3K10 (human)): 109%; residual activity (FES (human)): 108%; residual activity (GSK3A (human)): 106%; residual activity (ACVR1 (human)): 94.6%; residual activity (YES1 (human)): 101%; residual activity (EPHA7 (human)): 89.7%; residual activity (HIPK4 (human)): 92.9%; residual activity (CSNK2A2 (human)): 94.2%; residual activity (ACVR1B (human)): 97.6%; residual activity (AURKC (human)): 95.6%; residual activity (ADRBK1 (human)): 102%; residual activity (PRKCB1 (human)): 102%
O=C1NC(=O)c2c1c1c3ccccc3n3c1c1c2c2ccccc2n1C1CCC3O1	80.1%	69.7%	0.194%	2.75%	32.7%	99.2%	12.7%	97.8%	4.6%	83.9%	13.3%	23.9%	7.76%	39.8%	52.5%	27.5%	33%	59.9%	88.4%	29.9%	residual activity (PAK4 (human)): 75.3%; residual activity (MAP3K3 (human)): 18.4%; residual activity (EPHA5 (human)): 78.7%; residual activity (STK16 (human)): 58.1%; residual activity (DYRK2 (human)): 5.94%; residual activity (MST4 (human)): 20.5%; residual activity (ROCK1 (human)): 88.7%; residual activity (LRRK2 (human)): 1.91%; residual activity (MAP3K10 (human)): 2.66%; residual activity (FES (human)): 42.1%; residual activity (GSK3A (human)): 2.19%; residual activity (ACVR1 (human)): 85.8%; residual activity (YES1 (human)): 31.9%; residual activity (EPHA7 (human)): 69.2%; residual activity (HIPK4 (human)): 29.1%; residual activity (CSNK2A2 (human)): 4.47%; residual activity (ACVR1B (human)): 113%; residual activity (AURKC (human)): 36.5%; residual activity (ADRBK1 (human)): 97.9%; residual activity (PRKCB1 (human)): 22.5%
CNC(=O)c1cc(Oc2ccc(NC(=O)Nc3ccc(Cl)c(C(F)(F)F)c3)cc2)ccn1	3.41%	106%	9.22%	94.3%	101%	100%	83.9%	88.3%	101%	96.9%	50.5%	89.8%	96.1%	100%	99.3%	93.3%	103%	91.6%	97.8%	98.5%	residual activity (PAK4 (human)): 91.8%; residual activity (MAP3K3 (human)): 107%; residual activity (EPHA5 (human)): 99.4%; residual activity (STK16 (human)): 105%; residual activity (DYRK2 (human)): 98.9%; residual activity (MST4 (human)): 101%; residual activity (ROCK1 (human)): 102%; residual activity (LRRK2 (human)): 106%; residual activity (MAP3K10 (human)): 104%; residual activity (FES (human)): 104%; residual activity (GSK3A (human)): 103%; residual activity (ACVR1 (human)): 98.7%; residual activity (YES1 (human)): 82.8%; residual activity (EPHA7 (human)): 80.7%; residual activity (HIPK4 (human)): 4.85%; residual activity (CSNK2A2 (human)): 94.4%; residual activity (ACVR1B (human)): 102%; residual activity (AURKC (human)): 106%; residual activity (ADRBK1 (human)): 112%; residual activity (PRKCB1 (human)): 95.1%
Nc1ccc2ncnc(NCCc3ccc(Oc4ccccc4)cc3)c2c1	96.8%	107%	103%	96.4%	110%	108%	101%	100%	102%	93.3%	96%	95.6%	97.6%	110%	98.7%	102%	112%	103%	93.2%	96.3%	residual activity (PAK4 (human)): 105%; residual activity (MAP3K3 (human)): 106%; residual activity (EPHA5 (human)): 102%; residual activity (STK16 (human)): 94.7%; residual activity (DYRK2 (human)): 89.6%; residual activity (MST4 (human)): 94.4%; residual activity (ROCK1 (human)): 94.4%; residual activity (LRRK2 (human)): 98.5%; residual activity (MAP3K10 (human)): 91.9%; residual activity (FES (human)): 99.6%; residual activity (GSK3A (human)): 110%; residual activity (ACVR1 (human)): 91.8%; residual activity (YES1 (human)): 112%; residual activity (EPHA7 (human)): 104%; residual activity (HIPK4 (human)): 97.4%; residual activity (CSNK2A2 (human)): 103%; residual activity (ACVR1B (human)): 101%; residual activity (AURKC (human)): 96%; residual activity (ADRBK1 (human)): 91.5%; residual activity (PRKCB1 (human)): 96.3%

Source: the kinase profiling compilation of Christmann-Franck et al. (2016)
